Laboratory results taken from ChEMBL document CHEMBL1123720 (J Med Chem, 1987).

species on record: Rattus norvegicus; test: Dose-dependent inhibition of calcium contraction in depolarized rat aortic strips; assay type: functional, organism-based; conditions: Aorta

SMILES | IC50
CCOC(=O)C1=C(C)N=C(C)/C(=C(/O)OCC)C1c1cccc([N+](=O)[O-])c1SC (configuration not stated) | 5.8 nM
CCOC(=O)C1=C(C)N=C(C)/C(=C(/O)OCC)C1c1cc([N+](=O)[O-])ccc1SC (configuration not stated) | 130 nM
CCOC(=O)[C@H]1[C@H]2/C(=C(\O)OCC)C(C)=N[C@]1(C)Sc1c2cccc1[N+](=O)[O-] | 23000 nM
CCOC(=O)[C@H]1[C@H]2/C(=C(\O)OCC)C(C)=N[C@]1(C)Sc1ccc([N+](=O)[O-])cc12 | 3400 nM
CCOC(=O)[C@H]1[C@H]2/C(=C(\O)OCC)C(C)=N[C@]1(C)Sc1ccccc12 | 22000 nM
CCOC(=O)[C@@H]1[C@H]2/C(=C(\O)OCC)C(C)=N[C@]1(C)Sc1cc([N+](=O)[O-])ccc12 | 14000 nM
CCOC(=O)[C@@H]1[C@H]2/C(=C(\O)OCC)C(C)=N[C@]1(C)Sc1c2cccc1[N+](=O)[O-] | 3700 nM
CCOC(=O)[C@@H]1[C@H]2/C(=C(\O)OCC)C(C)=N[C@]1(C)Sc1ccc([N+](=O)[O-])cc12 | 31 nM
CCOC(=O)[C@@H]1[C@H]2/C(=C(\O)OCC)C(C)=N[C@]1(C)Sc1ccccc12 | 1200 nM
COC(=O)C1=C(C)NC(C)=C(C(=O)OC)C1c1ccccc1[N+](=O)[O-] [NIFEDIPINE] | 8.8 nM
CCOC(=O)C1=C(C)NC(C)=C(C(=O)OC)C1c1cccc([N+](=O)[O-])c1 (configuration not stated) [NITRENDIPINE] | 3.1 nM

species on record: Rattus norvegicus; test: Dose-dependent inhibition of calcium contraction in depolarized rat aortic strips.; assay type: functional, organism-based; conditions: Aorta

SMILES | IC50
CCOC(=O)[C@H]1[C@H]2/C(=C(\O)OCC)C(C)=N[C@]1(C)Sc1cc([N+](=O)[O-])ccc12 | > 100000 nM
